Data from patent publication US9073880B2, “2-(2-phenylethenyl) 1,3-benzodiazepine derivatives useful for the treatment of cancer” (Yissum Research Development Company of the Hebrew …, priority 2010, dated 2015).

How the values were obtained:
Assay type in all cases: cell-based
[1] = tested on: human colon carcinoma HCT15 cells; test: Cell proliferation, HCT15 (Example 2); conditions: HCT-15, 72 hours, 0.1% DMSO, methylene blue
Procedure: (§1) Human ovary cancer A2780 cells lines were seeded at a density of 5000 cells/well, human melanoma A375 cells were plated at a density of 2,500 cells/well, human colon carcinoma HCT15 cells were plated at a density of 3,000 cells/well, human prostate carcinoma PC3 cells were plated at a density of 1,500 cells/well, human breast carcinoma MCF7 cells were plated at a density of 5,000 cells/well, human breast carcinoma MDA MB 468 cells were plated at a density of 6,000 cells/well, human myeloma U266, RPMI8226 and CAG cells were plated at a density of 10,000 cells/well. All cells were plated in 96-well plates in 90 μl growth medium containing 10% FCS, 100 units/ml penicillin and 100 μg/ml streptomycin. Compound 3 was added a day later in […] of 1% DMSO in DDW to obtain final concentrations of 0, 0.1, 0.3, 1, 3, and 10 μM. The final concentration of DMSO (0.1% DMSO) was kept constant in all samples. […] The optical density values were read at 630 nm in ELISA plate reader. Non-adhered cells were exposed to WST-1 reagent for 5 hours following 72 hours treatment with the inhibitors, and optical density values were read at 630 nm in ELISA plate reader. The data was analyzed in Microsoft Excel, using the vehicle control as 100% proliferation. […]

[2] = tested on: human prostate carcinoma PC3 cells; test: Cell proliferation, PC3 (Example 4); conditions: PC-3, PC3, prostate cancer, compound in 2-hydroxypropyl-β-cyclodextrin
Procedure: as §1

[3] = tested on: human melanoma A375 cells; test: Cell proliferation, A375 (Example 2); conditions: A-375, 72 hours, 0.1% DMSO, methylene blue
Procedure: as §1

[4] = tested on: human melanoma A375 cells; test: Cell death (PARP cleavage) in A375 cells
Procedure: The effect of compound 5 on IRS1 & IRS2 levels and its effect on IGF1-induced Akt/PKB activation and apoptosis in melanoma A375 cells were tested. Cells were seeded in 6-well plates (150,000 A375 cells/well) and 24 hours later medium was replaced by serum-free medium (RPMI supplemented with 100 units/ml penicillin and 100 μg/ml streptomycin), […], and then stimulated for 5 minutes with 50 ng/ml IGF-1, washed twice with PBS and lysed by boiling sample buffer (10% glycerol, 50 mM Tris-HCl, pH 6.8, 3% SDS, and 5% β-mercaptoethanol). Equal amounts of protein per lane were separated by 8% SDS-PAGE and transferred to a nitrocellulose membrane (Sartorius AG). To detect the inhibition of the Akt/PKB activation, phosphorylated proteins were immunoblotted with anti-phospho(T308)Akt (pT308-PKB) and anti-phospho-Tuberin/TSC2 (pTuberin) antibodies. To visualize cell death induced by compound 5, the intact and the cleaved PARP were immunoblotted with anti-PARP antibody. The changes in the levels of IRS1 and IRS2 were detected with specific antibodies. Detection was performed with horseradish peroxidase-conjugated secondary antibody using the ECL system. Blots were then stripped of antibodies, blocked with TBST with 5% low fat milk and re-probed with antibodies detecting both the phosphorylated and the non-phosphorylated Akt/PKB. […]

Row | Structure (SMILES) | IC50 [1] | IC50 [2] | IC50 [3] | cell death (PARP cleavage) ([4]; 3 μM, 48 hr, FIG. 6A, 6B) | cell death (PARP cleavage) after washout ([4]; 5 μM for 4 hr, 24 hr following washout, FIG. 6C)
1 | O=c1c(O)cc2cnc(/C=C/c3cc(O)c(O)c(Br)c3)sc-2c1O [Compound 3] | 1000 nM | 700 nM | 1000 nM | – | –
2 | O=c1c(O)cc2cnc(/C=C/c3ccc(O)c(O)c3Br)sc-2c1O [Compound 5] | – | – | – | induced cell death (PARP cleavage) | enough to trigger a process which leads to cell death
